In PubChem BioAssay (NCI) one finds TGI data, which are given here for eight molecules.

Some test systems named below: HT29 colon; RXF 393 renal; SW-620 colon; SF-295 CNS; UO-31 renal; BT-549 breast; UACC-62 melanoma; TK-10 renal; SF-268 CNS; NCI-H23 lung; 786-0 renal; HCC-2998 colon; ACHN renal; HOP-92 NSCLC.
What all share (test): NCI-60 cell line screen, 48 h

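Where inhibition never reached the appropriate level, the endpoint shown equals the highest concentration tested. Otherwise, values were interpolated linearly from a five-concentration, 48-hour dose response in 96-well plates. TGI is the concentration that stops growth completely.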

With `CC(C)(C)c1ccc2c(c1)OCc1n[nH]c(n1)COc1cc(C(C)(C)C)ccc1OCCOCCO2`, the TGI stood at 10.3 µM with HT29 colon; 4.56 µM in the assay on RXF 393 renal; 13.1 µM in the assay on SW-620 colon; 12.5 µM in the assay on SF-295 CNS; 13.1 µM in the assay with UO-31 renal; 10.9 µM in the assay with BT-549 breast. Also, the TGI came out at 10.4 µM in the assay with UACC-62 melanoma; 8.14 µM in the assay with TK-10 renal; 17.3 µM in the assay on SF-268 CNS; 12.5 µM in the assay on NCI-H23 lung; 16 µM in the assay with 786-0 renal; 13.9 µM with HCC-2998 colon. Moreover, the TGI in the assay on ACHN renal and with HOP-92 NSCLC was 14.8 µM each time.

As for `O=S1(=O)c2ccccc2NC(=S)N1c1ccccc1`, the TGI in the assay on HT29 colon was more than 100 µM; in the assay on RXF 393 renal, more than 100 µM; in the assay with SW-620 colon, more than 100 µM; in the assay on SF-295 CNS, more than 100 µM; in the assay with UO-31 renal it was more than 100 µM; in the assay with BT-549 breast it was 99.2 µM. Also, the TGI was more than 100 µM in the assay with UACC-62 melanoma; more than 100 µM in the assay with TK-10 renal; more than 100 µM in the assay on SF-268 CNS; more than 100 µM in the assay on NCI-H23 lung; more than 100 µM in the assay with 786-0 renal; 98.4 µM in the assay with HCC-2998 colon. For the same molecule, the TGI in the assay with ACHN renal was more than 100 µM; with HOP-92 NSCLC, 45.3 µM.

As to `CC(O)(C(=O)N(O)c1ccc(Cl)cc1)c1ccc(Cl)cc1` (configuration not stated), the TGI in the assay on HT29 colon was more than 100 µM; with RXF 393 renal, 95.2 µM; in the assay on SW-620 colon, more than 100 µM; in the assay on SF-295 CNS, 92.4 µM; with UO-31 renal, 42.4 µM; in the assay on BT-549 breast, 61.5 µM. The TGI with UACC-62 melanoma was more than 100 µM; in the assay on TK-10 renal, more than 100 µM; in the assay with SF-268 CNS it was more than 100 µM; with NCI-H23 lung, 59.7 µM; in the assay with 786-0 renal, more than 100 µM; in the assay with HCC-2998 colon, 38.7 µM. For the same molecule, the TGI in the assay on ACHN renal stood at 62.3 µM; in the assay on HOP-92 NSCLC it was 48.3 µM.

`COc1cc(/C=C/C(=O)O)ccc1OS(=O)(=O)O`: the TGI with HT29 colon, in the assay with RXF 393 renal, in the assay with SW-620 colon, with SF-295 CNS, in the assay with UO-31 renal and with BT-549 breast was more than 100 µM in each case. The TGI in the assay on UACC-62 melanoma, in the assay on TK-10 renal, in the assay with SF-268 CNS, in the assay on NCI-H23 lung, in the assay on 786-0 renal and with HCC-2998 colon was more than 100 µM throughout. Besides, the TGI with ACHN renal and in the assay with HOP-92 NSCLC was more than 100 µM each time.

As for `CC/C=C\C/C=C\C/C=C\CCCCCCCC(=O)OC(COC(=O)CCCCCCCCCCCCCCCCC)COC1OC(CO)C(O)C(O)C1O` (configuration not stated), the TGI with HT29 colon, in the assay with RXF 393 renal, with SW-620 colon, in the assay on SF-295 CNS, with UO-31 renal and in the assay on BT-549 breast was more than 25 µM each time. The TGI in the assay on UACC-62 melanoma, with TK-10 renal, in the assay on SF-268 CNS, with NCI-H23 lung, in the assay with 786-0 renal and in the assay with HCC-2998 colon was more than 25 µM in each case. The TGI in the assay on ACHN renal and with HOP-92 NSCLC was more than 25 µM throughout.

In the case of `COC(=O)/C=C\S/C(=C(/c1ccccc1)n1ccc(C(=O)OC)n1)c1ccccc1`, the TGI with HT29 colon was more than 100 µM; in the assay with RXF 393 renal, 39.8 µM; in the assay with SW-620 colon, more than 100 µM; in the assay with SF-295 CNS, more than 100 µM; with UO-31 renal, 38.7 µM; with BT-549 breast, more than 100 µM. Moreover, the TGI is 10.3 µM with UACC-62 melanoma; more than 100 µM with TK-10 renal; 39.4 µM in the assay on SF-268 CNS; more than 100 µM in the assay with NCI-H23 lung; 36.6 µM in the assay with 786-0 renal; more than 100 µM in the assay with HCC-2998 colon. For the same molecule, the TGI in the assay with ACHN renal was found to be 20.1 µM; with HOP-92 NSCLC, 86.2 µM.

Take `COP(=O)(CC(=O)C1OC(OCc2ccccc2)C(OCc2ccccc2)C(OCc2ccccc2)C1OCc1ccccc1)OC` (configuration not stated): the TGI is 24.2 µM with HT29 colon; 19.4 µM in the assay on RXF 393 renal; more than 100 µM in the assay on SW-620 colon; more than 100 µM in the assay on SF-295 CNS; 7.1 µM in the assay on UO-31 renal; 71.2 µM with BT-549 breast. The TGI in the assay on UACC-62 melanoma is 17.8 µM; in the assay with TK-10 renal it was 79.8 µM; in the assay on SF-268 CNS, more than 100 µM; in the assay with NCI-H23 lung, more than 100 µM; with 786-0 renal it was more than 100 µM; with HCC-2998 colon it was 19.2 µM. Moreover, the TGI in the assay with ACHN renal was determined as 23.2 µM; in the assay on HOP-92 NSCLC, 85.7 µM.

On to `CCOC1NC(=O)c2ccccc21` (configuration not stated), for which the TGI in the assay with HT29 colon, with RXF 393 renal, in the assay with SW-620 colon, with SF-295 CNS, in the assay with UO-31 renal and in the assay on BT-549 breast was more than 100 µM throughout. Also, the TGI in the assay with UACC-62 melanoma, in the assay on TK-10 renal, in the assay with SF-268 CNS, in the assay with NCI-H23 lung, in the assay on 786-0 renal and with HCC-2998 colon was more than 100 µM in each case. For the same molecule, the TGI with ACHN renal and in the assay with HOP-92 NSCLC was more than 100 µM in each case.
